System: P12-Ichikawa
Test: cell viability relative to DMSO control; higher = less cytotoxic
Conditions: 48 h
How it was run: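 Viability values are per-plate percentages of DMSO wells, with background from cell-free wells. Library compounds in DMSO were pin-dosed, in an 11-point threefold series from 47 μM to 0.79 nM, onto NOMO1 or SEM (500 cells/well) or P12-Ichikawa (1000 cells/well) leukemia cells in 1536-well plates (5 μl). Those cells had been adapted for at least four passages in each medium, and CellTiter-Glo One luminescence was read after 48 h at 37°C.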

[1] = HPLM + 10% dialyzed FBS, 0.000781 µM
[2] = HPLM + 10% dialyzed FBS, 0.00234 µM
[3] = HPLM + 10% dialyzed FBS, 0.00702 µM
[4] = HPLM + 10% dialyzed FBS, 0.0211 µM
[5] = HPLM + 10% dialyzed FBS, 0.0632 µM
[6] = HPLM + 10% dialyzed FBS, 0.19 µM
[7] = HPLM + 10% dialyzed FBS, 0.569 µM
[8] = HPLM + 10% dialyzed FBS, 1.71 µM
[9] = HPLM + 10% dialyzed FBS, 5.12 µM
[10] = HPLM + 10% dialyzed FBS, 15.4 µM
[11] = HPLM + 10% dialyzed FBS, 46.1 µM
[12] = RPMI 5 mM glucose + 10% FBS, 0.000781 µM
[13] = RPMI 5 mM glucose + 10% FBS, 0.00234 µM
[14] = RPMI 5 mM glucose + 10% FBS, 0.00702 µM
[15] = RPMI 5 mM glucose + 10% FBS, 0.0211 µM
[16] = RPMI 5 mM glucose + 10% FBS, 0.0632 µM
[17] = RPMI 5 mM glucose + 10% FBS, 0.19 µM
[18] = RPMI 5 mM glucose + 10% FBS, 0.569 µM
[19] = RPMI 5 mM glucose + 10% FBS, 1.71 µM
[20] = RPMI 5 mM glucose + 10% FBS, 5.12 µM
[21] = RPMI 5 mM glucose + 10% FBS, 15.4 µM
[22] = RPMI 5 mM glucose + 10% FBS, 46.1 µM
[23] = RPMI 5 mM glucose + 10% dialyzed FBS, 0.000781 µM
[24] = RPMI 5 mM glucose + 10% dialyzed FBS, 0.00234 µM
[25] = RPMI 5 mM glucose + 10% dialyzed FBS, 0.00702 µM
[26] = RPMI 5 mM glucose + 10% dialyzed FBS, 0.0211 µM
[27] = RPMI 5 mM glucose + 10% dialyzed FBS, 0.0632 µM
[28] = RPMI 5 mM glucose + 10% dialyzed FBS, 0.19 µM
[29] = RPMI 5 mM glucose + 10% dialyzed FBS, 0.569 µM
[30] = RPMI 5 mM glucose + 10% dialyzed FBS, 1.71 µM
[31] = RPMI 5 mM glucose + 10% dialyzed FBS, 5.12 µM
[32] = RPMI 5 mM glucose + 10% dialyzed FBS, 15.4 µM
[33] = RPMI 5 mM glucose + 10% dialyzed FBS, 46.1 µM

Compound	cell viability [1]	cell viability [2]	cell viability [3]	cell viability [4]	cell viability [5]	cell viability [6]	cell viability [7]	cell viability [8]	cell viability [9]	cell viability [10]	cell viability [11]	cell viability [12]	cell viability [13]	cell viability [14]	cell viability [15]	cell viability [16]	cell viability [17]	cell viability [18]	cell viability [19]	cell viability [20]	cell viability [21]	cell viability [22]	cell viability [23]	cell viability [24]	cell viability [25]	cell viability [26]	cell viability [27]	cell viability [28]	cell viability [29]	cell viability [30]	cell viability [31]	cell viability [32]	cell viability [33]
C/C=C(/C)C(=O)O[C@H]1C(C)=C2[C@H]([C@@H]1OC(=O)CCCCCCC)[C@@](C)(OC(C)=O)C[C@H](OC(=O)CCC)[C@@]1(O)[C@H]2OC(=O)[C@@]1(C)O	103%	114%	111%	109%	104%	71%	38.5%	51.5%	67%	69.8%	75.2%	120%	129%	107%	125%	96.8%	66.4%	22.1%	23.8%	46%	48.2%	42.4%	109%	121%	123%	112%	95.7%	52.6%	13.3%	8.27%	16.7%	20.3%	22.7%
CCC1(C)CC(=O)NC1=O (stereo not given)	101%	103%	104%	104%	108%	116%	100%	102%	94.9%	96.7%	94.7%	99.4%	105%	115%	101%	111%	105%	102%	99.3%	106%	92%	87.4%	101%	101%	101%	97.3%	104%	104%	102%	96.3%	96.3%	97.1%	88.9%
CC(=O)O.Cc1c(-c2ccc(O)cc2)n(Cc2ccc(OCCN3CCCCCC3)cc2)c2ccc(O)cc12	103%	101%	99.2%	98.1%	101%	111%	101%	106%	106%	101%	100%	92.3%	92.5%	92.4%	87.6%	99.3%	103%	96.1%	109%	101%	100%	101%	89.2%	94.5%	96.3%	94.5%	92.5%	98.9%	98.3%	95.4%	113%	104%	100%
COc1c(C)cnc(Cn2cnc3c(Cl)nc(N)nc32)c1C	109%	114%	106%	125%	118%	104%	85.1%	67.9%	55.1%	50.2%	50.5%	116%	123%	125%	125%	124%	94.1%	61.6%	50.5%	48%	40.9%	38.1%	110%	121%	119%	116%	115%	99.8%	58.3%	47.8%	45.1%	40.9%	37.9%
O=NN(CCCl)C(=O)NCCCl	87%	94.8%	108%	103%	103%	114%	100%	101%	102%	104%	95.2%	83.3%	97.9%	100%	96.3%	109%	100%	97.2%	93.6%	103%	99.3%	98.6%	87%	95.8%	104%	99.7%	106%	99.7%	94.6%	100%	97.2%	102%	100%
C[C@]\12CC[C@H](O)CC1=C/CC3C2CC[C@@]\4(C)C3C\C=C4[N]5C=NC6=C5C=CC=C6 (stereo not given in full)	94.2%	95.5%	102%	106%	103%	105%	105%	104%	107%	106%	107%	82.9%	94.2%	93.8%	112%	107%	106%	105%	105%	102%	99.5%	98.5%	89.6%	97.4%	103%	108%	103%	102%	103%	100%	107%	104%	102%
C[C@@H](NC1=CC=CC=C1C(O)=O)C/2=C/C(=C\N3C(=O)/C=C(\N=C23)N4CCOCC4)C	87.2%	87%	101%	94.1%	95.9%	93.2%	97.1%	89.3%	75%	60.5%	39.9%	82.4%	78.7%	83.5%	97.1%	92.1%	84.7%	85.7%	72.2%	59.2%	47.9%	27.6%	77.7%	85.3%	93.1%	92.9%	90.5%	88.4%	80%	87.4%	61.9%	46.3%	33.1%
CC(C)n1nc(-c2cc3cc(O)ccc3[nH]2)c2c(N)ncnc21	109%	107%	112%	106%	99.4%	90%	73%	72.7%	64.9%	47.4%	36.8%	100%	109%	110%	95.3%	92.8%	79.5%	66.5%	56.9%	52.5%	35.4%	17.5%	105%	116%	111%	118%	108%	86.4%	73.6%	66.6%	48.6%	30.8%	20.5%
CN[S+](=O)([O-])Cc1ccc2[nH]cc(CCN(C)C)c2c1	110%	122%	112%	118%	123%	126%	123%	123%	116%	120%	126%	115%	123%	125%	116%	128%	119%	131%	136%	125%	130%	131%	106%	113%	113%	122%	119%	121%	128%	131%	121%	127%	121%
CC(=O)O[C@H]1C(=O)[C@]2(C)[C@@H](O)C[C@H]3OC[C@@]3(OC(C)=O)C2[C@H](OC(=O)C4=CC=CC=C4)[C@]5(O)C[C@H](OC(=O)[C@H](O)[C@@H](NC(=O)C6=CC=CC=C6)C7=CC=CC=C7)\C(=C1/C5(C)C)C (stereo not given in full)	93.3%	42.1%	35.2%	27.6%	31.9%	27.8%	25.7%	27.1%	25%	19.1%	15.3%	88.3%	48%	34.3%	24%	26.1%	24.8%	27.8%	23%	26%	19.3%	14.3%	95.8%	58.3%	41.4%	31.5%	37.7%	39.7%	35.9%	38.8%	37.7%	31.9%	25.9%
CC\1=C(C(\N=C(/N1)C2=CC(=NC=C2)Cl)C3=C(F)C=C(Cl)C=C3)/C(=O)NC4=C(F)C=C5[NH]N=CC5=C4 (stereo not given)	103%	103%	109%	112%	111%	107%	112%	115%	106%	77.5%	4.67%	87.6%	114%	118%	104%	102%	113%	110%	113%	110%	71.6%	8.24%	105%	121%	110%	116%	118%	118%	121%	124%	112%	82.9%	14.7%
CC(C)[C@@H](N(CCCN)C(=O)C1=CC=C(C)C=C1)C/2=N/C3=CC(=CC=C3C(=O)N2CC4=CC=CC=C4)Cl	97.6%	12%	10.4%	8.9%	8.1%	8.2%	5.86%	7.66%	5.88%	7.47%	8.59%	96.2%	12.6%	10.8%	11.7%	9.51%	12%	8.85%	8.68%	7.23%	7.78%	7.67%	88.8%	48.5%	18.6%	14.5%	12.8%	13.4%	11.1%	14.6%	11.3%	11.3%	10.9%
CC1(C)CC(=O)c2c(C(F)(F)F)nn(-c3ccc(C(N)=O)c(NC4CCC(O)CC4)c3)c2C1 (stereo not given)	90.3%	87.3%	85.5%	82.4%	90%	67.1%	42%	33.7%	36.1%	36.6%	80.9%	84%	93.5%	85.6%	77.6%	82.2%	48.2%	32.1%	25.6%	27.6%	28.1%	84.5%	84.2%	81.9%	81.9%	73.1%	80.8%	44.3%	28.7%	30.4%	25.5%	27.8%	73.7%
CC/1=C/C(=O)N(O)/C(=C1)C2CCCCC2	115%	118%	123%	132%	130%	125%	121%	127%	113%	74.8%	28.5%	–	–	–	–	–	–	–	–	–	–	–	–	–	–	–	–	–	–	–	–	–	–

— the supplement of paper PMC11451515
